± gives the expanded uncertainty stated by the source.
Conditions: 84 kPa, Liquid, Pycnometric method

CN(CCO)CCO [N-methyldiethanolamine]
Conditions	mass density [kg/m3]
293.15 K	1041.12 ± 1.9
303.15 K	1033.6 ± 1.9
313.15 K	1025.83 ± 1.9
323.15 K	1017.8 ± 1.9
333.15 K	1010.8 ± 1.9
343.15 K	1002.76 ± 1.9
